Measured values from ChEMBL document CHEMBL4392866, “Cytotoxic Trichothecene Macrolides Produced by the Endophytic Myrothecium roridum” (J Nat Prod, 2019).

Columns and labels:
SW 1116 = assay: Cytotoxicity against human SW1116 cells by disk diffusion soft agar colony formation assay; assay type: functional, cell-based
K562 = assay: Cytotoxicity against human K562 cells by disk diffusion soft agar colony formation assay; assay type: functional, cell-based

Compound | IC50 (SW 1116; sw 1116) | IC50 (K562; k562) | IC50 (SW 1116; Homo sapiens, SW 1116) | IC50 (K562; Homo sapiens, K562)
CC1=C[C@H]2O[C@@H]3C[C@H]4OC(=O)/C=C\CC[C@]5(C(=O)CO)OCC/C(=C\C(=O)OC[C@@]2(CC1)[C@]4(C)[C@]31CO1)[C@H]5O | 550 nM | 920 nM | – | –
CC1=C[C@H]2O[C@@H]3C[C@H]4OC(=O)/C=C\CC[C@@]5([C@H](C)O)OCC/C(=C\C(=O)OC[C@@]2(CC1)[C@]4(C)[C@]31CO1)[C@@H]5O | 2270 nM | 510 nM | – | –
C[C@@H]1CCOC(=O)/C=C/C=C\C(=O)O[C@@H]2C[C@H]3O[C@@H]4C=C(CO)CC[C@]4(COC(=O)[C@H]1O)[C@]2(C)[C@]31CO1 [16-HYDROXY VERRUCARIN A] | 12 nM | 1.7 nM | – | –
CC(=O)[C@@]12CC/C=C\C(=O)O[C@@H]3C[C@H]4O[C@@H]5[C@@H]6C[C@@]4(O)[C@@]3(C)[C@]5(CC[C@]6(C)O)COC(=O)/C=C(\CCO1)[C@@H]2O | – | – | 10600 nM | 970 nM
C/C1=C\C(=O)OC[C@]23CCC(CO)=C[C@H]2O[C@@H]2C[C@@H](OC(=O)/C=C\C=C\[C@H]([C@@H](C)O)OCC1)[C@@]3(C)[C@]21CO1 | 9060 nM | 7130 nM | – | –
CC1=C[C@H]2O[C@@H]3C[C@H]4OC(=O)/C=C\CC[C@@]56OCC/C(=C\C(=O)OC[C@@]2(CC1)[C@]4(C)[C@]31CO1)[C@H]5OC(=O)[C@@H]6O | 200 nM | 56 nM | – | –
CC(=O)[C@@]12CC/C=C\C(=O)O[C@@H]3C[C@H]4O[C@@H]5[C@@H]6C[C@@]4(O)[C@@]3(C)[C@]5(CC[C@]6(C)O)COC(=O)/C=C(\CCO1)[C@H]2O | – | – | 22700 nM | 31600 nM
CC1=C[C@H]2O[C@@H]3C[C@@H](OC(=O)/C=C\C=C\C(OCCC4=CC(=O)OC4)[C@@H](C)O)[C@](C)([C@@]2(COC(=O)/C=C(\C)CCO)CC1)[C@]31CO1 (stereo partly specified) | 3.1 nM | 1.2 nM | – | –
C[C@]12[C@H]3C[C@H]4O[C@@H]5[C@H](C[C@]41O)[C@@](C)(O)CC[C@@]52COC(=O)/C=C1\CCO[C@]2(CC/C=C\C(=O)O3)[C@@H]1O[C@H](O)[C@H]2O | – | – | 570 nM | 8200 nM
CC(=O)[C@@]12CC/C=C\C(=O)O[C@@H]3C[C@H]4O[C@@H]5C=C(C)CC[C@]5(COC(=O)/C=C(\CCO1)[C@H]2O)[C@]3(C)[C@]41CO1 | 1.5 nM | 1.3 nM | – | –
CC1=C[C@H]2O[C@@H]3C[C@H]4OC(=O)/C=C\C=C\C(=O)OCC[C@@H](C)[C@H](O)C(=O)OC[C@@]2(CC1)[C@]4(C)[C@]31CO1 [VERRUCARIN A] | 1.8 nM | 3 nM | – | –
O=c1[nH]cc(F)c(=O)[nH]1 [FLUOROURACIL] | – | – | 76900 nM | 32900 nM
C[C@]12[C@H]3C[C@H]4O[C@@H]5[C@H](C[C@]41O)[C@@](C)(O)CC[C@@]52COC(=O)/C=C1\CCO[C@@]2(CC/C=C\C(=O)O3)[C@H](O)C(=O)O[C@H]12 | – | – | 11600 nM | 16000 nM
C/C1=C\C(=O)OC[C@]23CCC(CO)=C[C@H]2O[C@@H]2C[C@@H](OC(=O)/C=C\C=C\C(=O)OCC1)[C@@]3(C)[C@]21CO1 | 160 nM | 6.4 nM | – | –
CC1=C[C@H]2O[C@@H]3C[C@H]4OC(=O)/C=C\C=C\[C@@H]([C@@H](C)O)OCC/C(C)=C/C(=O)OC[C@@]2(CC1)[C@]4(C)[C@]31CO1 | 33 nM | 1 nM | – | –
C[C@]12[C@H]3C[C@H]4O[C@@H]5[C@H](C[C@]41O)[C@@](C)(O)CC[C@@]52COC(=O)/C=C1\CCO[C@]2(CC/C=C\C(=O)O3)[C@@H]1OC(=O)[C@@H]2O | – | – | 21100 nM | 16000 nM
CC1=C[C@H]2O[C@@H]3C[C@H]4OC(=O)/C=C\C=C\[C@H]([C@@H](C)O)OCC/C(CO)=C/C(=O)OC[C@@]2(CC1)[C@]4(C)[C@]31CO1 | 7920 nM | 3150 nM | – | –
C[C@]12[C@H]3C[C@H]4O[C@@H]5[C@H](C[C@]41O)[C@@](C)(O)CC[C@@]52COC(=O)/C=C1\CCO[C@@](C(=O)CO)(CC/C=C\C(=O)O3)[C@@H]1O | – | – | 23100 nM | 26700 nM
CC(=O)[C@@]12CC/C=C\C(=O)O[C@@H]3C[C@H]4O[C@@H]5C=C(CO)CC[C@]5(COC(=O)/C=C(\CCO1)[C@H]2O)[C@]3(C)[C@]41CO1 | 180 nM | 2870 nM | – | –
CC(=O)O[C@@H]1/C2=C/C(=O)OC[C@@]34CC[C@](C)(O)[C@H]5C[C@]6(O)[C@@H](C[C@@H](OC(=O)/C=C\CC[C@]1(C(C)=O)OCC2)[C@]36C)O[C@H]54 | – | – | 4250 nM | 1530 nM
CC1=C[C@H]2O[C@@H]3C[C@H]4OC(=O)/C=C\C=C\[C@H]([C@@H](C)O)OCC[C@@H](C)[C@H](O)C(=O)OC[C@@]2(CC1)[C@]4(C)[C@]31CO1 [RORIDIN A] | 210 nM | 7.1 nM | – | –
CC1=C[C@H]2O[C@@H]3C[C@H]4OC(=O)/C=C\CC[C@@]56OCC/C(=C\C(=O)OC[C@@]2(CC1)[C@]4(C)[C@]31CO1)[C@H]5O[C@@H](O)[C@@H]6O | 1.5 nM | 1.1 nM | – | –
CC1=C[C@H]2O[C@@H]3C[C@H]4OC(=O)/C=C\C=C\[C@H]([C@@H](C)O)OCC/C(C)=C/C(=O)OC[C@@]2(CC1)[C@]4(C)[C@]31CO1 [RORIDIN E] | 39 nM | 540 nM | – | –
